Laboratory results taken from patent US20230293535A1, “ERBB/BTK INHIBITORS” (Dizal (Jiangsu) Pharmaceutical Co., Ltd., priority 2018, published 2023).
Counter-ions that a name gives are not always drawn. Like-named read-outs stand apart in the source and are kept apart here.

Tests used:
Type in all cases: cell-based
TMD-8 cells = assay: BTK (wt) cell proliferation, TMD-8 (CellTiter-Glo, 72 h); conditions: Homo sapiens, TMD8, 72 h, read-out: BTK WT TMD-8 GI50;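 further: viable cells quantified by ATP-based luminescence, proliferation expressed as percent of DMSO control after subtracting a time-zero baseline plate read at dosing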
Ba/F3 EGFR NPH ins cells = assay: Cell proliferation, Ba/F3 EGFR NPH ins (CellTiter-Glo, 72 h); conditions: Ba/F3 EGFR, 72 h;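 further: IL3-independent cells carrying constitutively phosphorylated EGFR, compound dilution series, viable cells quantified by ATP luminescence, growth relative to DMSO wells after subtracting pre-dosing (day 0) baseline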
[1] = test system: Her2 exon 20 insertion YVMA transduced NIH-3T3 cell line; assay: Cell proliferation, Her2 YVMAins NIH-3T3 (CellTiter-Glo, 72 h); conditions: Mus musculus, NIH3T3, 72 h;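 further: viable cells quantified by ATP luminescence, growth over a day-zero baseline plate expressed as percent of DMSO control growth, compound dilution series in 10% FBS medium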
WT EGFR cell line A-431 = assay: Cell proliferation, WT EGFR A431 (CellTiter-Glo, 72 h); conditions: Homo sapiens, A-431, 72 h;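 further: proliferation from a luminescent ATP viability signal, expressed as 100 × (treated minus time-zero plate) over (DMSO control minus time-zero plate), cells grown with 10% FBS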
[2] = test system: NCI-H1975 EGFR L858R/T790M cells; assay: Cell proliferation, NCI-H1975 EGFR L858R/T790M (CellTiter-Glo, 72 h); conditions: Homo sapiens, NCI-H1975, 72 h;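 further: viable cells quantified by luciferase-based ATP luminescence, proliferation expressed relative to DMSO-treated wells (100%) after subtracting a parallel plate read at the time of dosing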
DB cells = assay: BTK (wt) cell proliferation, DB (CellTiter-Glo, 72 h); conditions: Homo sapiens, DB, read-out: Non-BCR activated DB GI50;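 further: DB cells in 384-well plates given a dilution series of compound, viable cells read by ATP luminescence, growth expressed versus DMSO control after subtracting a time-zero plate reading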
Ri-1 cells = assay: BTK (wt) cell proliferation, Ri-1 (CellTiter-Glo, 72 h); conditions: Ri-1, 72 h, read-out: BTK WT Ri-1 GI50;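 further: viable cells quantified as cellular ATP luminescence, proliferation normalized to a time-zero plate and the DMSO control, compounds tested across a dilution series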
Experimental: OCI-LY-10 at 3,750 cells/well, TMD-8 and Ri-1 at 2,000 cells/well, and DB at 1,250 cells/well, respectively, were sorted into 384-well plates in RPMI1640 medium with 10% FBS. After overnight incubation, all cells were incubated with compound at a series of concentrations. Meanwhile, a duplicated plate of each cell line was prepared for measuring G0 value. The dosed plates were further incubated for 72 hours and the number of viable cells was measured by CellTiter-Glo® Luminescent Cell Viability Assay (Promega), a luminescent method for determining the number of viable cells through measurement of cellular ATP concentration using Envision plate reader (PerkinElmer). The percentage of proliferation was calculated as: % Proliferation = 100 × (G3 value of sample well - G0 value)/(G3 value of DMSO control - G0 value).

[3] = biological target: T1, human Her2 exon 20 insertion mutation YVMA (Homo sapiens, UniProt P04626, INS775YVMA); assay: Her2 Exon 20 YVMA insertion cellular phosphorylation inhibition (MSD p-Her2 Y1248/total Her2); conditions: Her2 YVMAins cells, 4 h compound;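 further: lentivirally transduced NIH-3T3 cells in 1% FBS medium, electrochemiluminescent MSD read-out, graded compound concentrations at 37 °C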
T1 construct: expressed in transfected cells; host or cells: NIH-3T3, lentiviral transduction, puromycin selection
T1 sequence (P04626 with tags, fused parts or gaps INS775YVMA): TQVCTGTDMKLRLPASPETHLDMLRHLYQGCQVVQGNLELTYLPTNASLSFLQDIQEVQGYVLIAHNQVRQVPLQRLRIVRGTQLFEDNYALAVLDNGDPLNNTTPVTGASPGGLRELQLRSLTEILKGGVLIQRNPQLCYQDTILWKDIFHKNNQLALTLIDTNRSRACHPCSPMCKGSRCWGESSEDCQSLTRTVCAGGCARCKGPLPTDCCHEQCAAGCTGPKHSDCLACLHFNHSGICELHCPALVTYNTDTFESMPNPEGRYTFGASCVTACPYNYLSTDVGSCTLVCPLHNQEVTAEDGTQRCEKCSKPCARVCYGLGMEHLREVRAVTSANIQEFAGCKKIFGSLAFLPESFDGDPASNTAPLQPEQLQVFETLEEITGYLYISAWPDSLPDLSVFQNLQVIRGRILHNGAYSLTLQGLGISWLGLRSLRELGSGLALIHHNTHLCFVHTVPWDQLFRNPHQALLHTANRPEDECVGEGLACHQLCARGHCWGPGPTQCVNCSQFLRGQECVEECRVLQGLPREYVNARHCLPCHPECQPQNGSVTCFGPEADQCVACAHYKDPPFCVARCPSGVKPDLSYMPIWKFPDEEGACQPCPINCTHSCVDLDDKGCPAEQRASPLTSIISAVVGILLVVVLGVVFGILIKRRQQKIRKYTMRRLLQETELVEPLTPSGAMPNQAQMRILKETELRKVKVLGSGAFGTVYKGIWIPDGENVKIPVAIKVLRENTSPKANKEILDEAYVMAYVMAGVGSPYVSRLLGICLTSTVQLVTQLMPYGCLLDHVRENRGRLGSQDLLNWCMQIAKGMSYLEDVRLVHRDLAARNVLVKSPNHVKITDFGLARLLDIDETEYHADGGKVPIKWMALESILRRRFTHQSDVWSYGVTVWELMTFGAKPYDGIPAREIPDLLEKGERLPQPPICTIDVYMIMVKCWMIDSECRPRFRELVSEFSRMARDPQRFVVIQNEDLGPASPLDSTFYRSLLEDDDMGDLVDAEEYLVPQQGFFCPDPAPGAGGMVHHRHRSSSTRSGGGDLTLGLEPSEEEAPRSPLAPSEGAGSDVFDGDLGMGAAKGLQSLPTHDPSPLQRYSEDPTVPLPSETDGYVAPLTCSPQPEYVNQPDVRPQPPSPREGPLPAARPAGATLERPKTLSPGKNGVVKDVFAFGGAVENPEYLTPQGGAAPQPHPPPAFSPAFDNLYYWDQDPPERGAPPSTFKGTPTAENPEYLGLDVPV

[4] = biological target: T2, human EGFR exon 20 V769_D770insASV (Homo sapiens, UniProt P00533, INS769ASV); assay: EGFR Exon20 ASV insertion cellular phosphorylation inhibition (MSD pEGFR Y1068/total EGFR); conditions: Ba/F3 EGFR ASV ins cells, 4 h compound, p-EGFR(Y1068)/total EGFR;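 further: electrochemiluminescent readout on an MSD SECTOR Imager, IL3-independent transduced cells in medium with 1% FBS, compound concentration series at 37 °C and 5% CO2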
T2 construct: expressed in transfected cells; host or cells: Ba/F3 (DSMZ ACC-300), lentiviral transduction, puromycin selection, IL3 depletion
T2 sequence (P00533 with tags, fused parts or gaps INS769ASV): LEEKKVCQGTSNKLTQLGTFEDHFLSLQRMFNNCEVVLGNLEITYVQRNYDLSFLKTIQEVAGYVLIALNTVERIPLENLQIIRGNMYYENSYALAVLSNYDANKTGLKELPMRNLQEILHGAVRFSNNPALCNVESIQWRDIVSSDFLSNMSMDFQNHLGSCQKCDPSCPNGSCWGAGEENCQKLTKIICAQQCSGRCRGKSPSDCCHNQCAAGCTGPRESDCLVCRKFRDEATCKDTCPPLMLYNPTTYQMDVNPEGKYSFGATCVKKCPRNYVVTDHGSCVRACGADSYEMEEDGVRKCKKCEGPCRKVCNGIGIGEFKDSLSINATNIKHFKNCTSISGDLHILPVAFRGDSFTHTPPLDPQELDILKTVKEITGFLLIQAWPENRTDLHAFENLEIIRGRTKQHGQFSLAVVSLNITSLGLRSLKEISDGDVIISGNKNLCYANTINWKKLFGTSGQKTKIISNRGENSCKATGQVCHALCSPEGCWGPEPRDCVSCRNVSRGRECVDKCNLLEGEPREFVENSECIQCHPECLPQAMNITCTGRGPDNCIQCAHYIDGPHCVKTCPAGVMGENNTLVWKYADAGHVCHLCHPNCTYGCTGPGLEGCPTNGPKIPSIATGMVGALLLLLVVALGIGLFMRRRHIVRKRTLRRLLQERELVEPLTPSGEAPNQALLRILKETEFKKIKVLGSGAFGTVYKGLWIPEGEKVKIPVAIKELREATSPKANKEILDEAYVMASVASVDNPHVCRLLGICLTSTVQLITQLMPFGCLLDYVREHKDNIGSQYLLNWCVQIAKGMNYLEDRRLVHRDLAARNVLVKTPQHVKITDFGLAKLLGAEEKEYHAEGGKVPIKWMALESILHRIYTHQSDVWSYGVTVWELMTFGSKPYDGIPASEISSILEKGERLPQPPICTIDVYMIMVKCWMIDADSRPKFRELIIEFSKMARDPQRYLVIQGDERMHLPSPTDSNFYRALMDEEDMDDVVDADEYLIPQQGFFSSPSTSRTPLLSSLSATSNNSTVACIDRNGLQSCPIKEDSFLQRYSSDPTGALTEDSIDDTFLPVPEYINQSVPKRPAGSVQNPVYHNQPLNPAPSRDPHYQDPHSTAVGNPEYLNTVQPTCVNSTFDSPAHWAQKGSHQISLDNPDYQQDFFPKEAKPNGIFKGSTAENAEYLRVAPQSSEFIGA
Experimental: To generate the EGFR exon 20 V769_D770insASV transduced Ba/F3 cell line, the parental Ba/F3 cells were infected with the recombinant EGFR V769_D770insASV lentivirus and then followed by 1 µg/ml of puromycin selection and IL3 depletion. The resulting cell line expresses constitutively phosphorylated EGFR protein and proliferates in the absence of IL3, which could be used for in vitro PD and anti-proliferation assays.
One day before the test, WT or mutant cells were seeded in 96 well plates at appropriate concentrations with corresponding growth media supplemented with 1% FBS, and incubated overnight. The next day, tested compounds at a series of concentrations were added into each individual well of the plates, and the plates were incubated for 4 h at 37° C. with 5% CO2.
The EGFR (Y1068) phosphorylation level (activity) of cells in each well were then measured with MSD kit named “MULTI-SPOT®96 4-Spot HB Prototype EGFR Triplex [sequence]: pEGFR(Tyr1068),pEGFR(Tyr1173), Total EGFR” according to the manufacturer’s instruction (MESO SCALE DISCOVERY, Cat# N45ZB-1). The assay is an electrochemiluminescent method for determining both phosphorylated and total EGFR of cells with an MSD SECTOR® Imager and the ratio of p-EGFR/total EGFR can be generated by the machine. The Her2 (Y1248) phosphorylation level (activity) of cells in each well were measured with MSD Kit named “Phospho-ErbB2 (Tyr1248) Assay Whole Cell Lysate Kit” according to the manufacturer’s instruction (MESO SCALE DISCOVERY, Cat# K151CLD-3). The assay is an electrochemiluminescent method (MESO SCALE DISCOVERY) for determining both phosphorylated and total Her2 of cells with an MSD SECTOR® Imager and then the ratio of p-Her2/total Her2 can be generated by the machine.

OCI-LY-10 cells = assay: BTK (wt) cell proliferation, OCI-LY-10 (CellTiter-Glo, 72 h); conditions: Homo sapiens, OCI-Ly10, 72 h, read-out: BTK WT OCI-LY-10 GI50;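 further: viable cells quantified via cellular ATP luminescence, proliferation given as percent of DMSO control after subtracting a duplicate plate read at time of dosing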
Ba/F3 EGFR ASV ins cells = assay: Cell proliferation, Ba/F3 EGFR ASV ins (CellTiter-Glo, 72 h); conditions: Ba/F3 EGFR, 72 h;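 further: IL3-independent Ba/F3 cells transduced with EGFR V769_D770insASV, cellular ATP luminescence after compound exposure, growth relative to DMSO control with the day-0 baseline reading subtracted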
[5] = biological target: T3, human EGFR exon 20 H773_V774insNPH (Homo sapiens, UniProt P00533, INS773NPH); assay: EGFR Exon20 NPH insertion cellular phosphorylation inhibition (MSD pEGFR Y1068/total EGFR); conditions: Ba/F3 EGFR NPH ins cells, 4 h compound, p-EGFR(Y1068)/total EGFR;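 further: IL3-independent Ba/F3 cells with constitutively phosphorylated EGFR, compound exposure at 37 °C under 5% CO2, electrochemiluminescent MSD measurement of the p-EGFR to total EGFR ratio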
T3 construct: host or cells: Ba/F3
T3 sequence (P00533 with tags, fused parts or gaps INS773NPH): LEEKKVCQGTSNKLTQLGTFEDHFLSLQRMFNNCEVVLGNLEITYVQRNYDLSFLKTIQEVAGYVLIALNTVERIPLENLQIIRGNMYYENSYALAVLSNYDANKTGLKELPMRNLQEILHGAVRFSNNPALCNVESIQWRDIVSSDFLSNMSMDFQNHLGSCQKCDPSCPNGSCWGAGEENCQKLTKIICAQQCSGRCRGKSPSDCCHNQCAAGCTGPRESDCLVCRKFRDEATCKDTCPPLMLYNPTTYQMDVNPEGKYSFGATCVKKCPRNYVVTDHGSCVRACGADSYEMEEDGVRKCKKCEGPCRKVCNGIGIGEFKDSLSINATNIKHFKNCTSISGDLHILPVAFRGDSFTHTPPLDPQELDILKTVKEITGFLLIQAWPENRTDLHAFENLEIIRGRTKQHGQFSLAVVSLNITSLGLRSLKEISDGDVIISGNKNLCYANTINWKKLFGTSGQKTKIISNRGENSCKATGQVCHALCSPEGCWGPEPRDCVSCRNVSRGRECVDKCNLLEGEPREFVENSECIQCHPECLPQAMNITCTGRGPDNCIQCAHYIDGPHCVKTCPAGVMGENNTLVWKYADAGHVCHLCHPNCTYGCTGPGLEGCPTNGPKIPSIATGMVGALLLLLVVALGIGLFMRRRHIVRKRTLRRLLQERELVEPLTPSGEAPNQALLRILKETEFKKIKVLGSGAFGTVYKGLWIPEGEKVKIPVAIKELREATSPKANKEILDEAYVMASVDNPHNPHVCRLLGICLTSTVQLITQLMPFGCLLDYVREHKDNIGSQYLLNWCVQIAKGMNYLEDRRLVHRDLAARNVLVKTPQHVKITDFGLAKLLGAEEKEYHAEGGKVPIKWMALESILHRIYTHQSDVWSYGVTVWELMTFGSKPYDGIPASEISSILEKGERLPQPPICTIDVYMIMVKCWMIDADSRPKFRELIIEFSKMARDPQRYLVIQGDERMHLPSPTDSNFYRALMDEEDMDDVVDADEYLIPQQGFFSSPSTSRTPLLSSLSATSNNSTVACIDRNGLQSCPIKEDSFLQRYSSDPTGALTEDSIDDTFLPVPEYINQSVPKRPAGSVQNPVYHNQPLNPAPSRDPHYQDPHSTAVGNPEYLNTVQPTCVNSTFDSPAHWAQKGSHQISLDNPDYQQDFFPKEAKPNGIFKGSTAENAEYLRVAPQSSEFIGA

[6] = TMD-8 cells, 72 h, CellTiter-Glo
[7] = read-out: EGFR Exon20 NPH insertion GI50 (nM)
[8] = Her2 YVMAins cells, 72 h proliferation, read-out: Her2 Exon 20 YVMA insertion GI50
[9] = read-out: EGFR WT A431 GI50 (nM)
[10] = read-out: EGFR L858R and T790M mutation GI50 (nM)
[11] = Ri-1 cells, 72 h, CellTiter-Glo
[12] = OCI-LY-10 cells, 72 h, CellTiter-Glo
[13] = read-out: EGFR Exon20 ASV insertion GI50 (nM)
[14] = read-out: Her2 Exon 20 YVMA insertion GI50 (nM)
[15] = Ba/F3 EGFR NPH ins, 72 h proliferation, read-out: EGFR Exon20 NPH insertion GI50
[16] = A431, 72 h proliferation, read-out: EGFR WT A431 GI50
[17] = NCI-H1975, 72 h proliferation, read-out: EGFR L858R and T790M mutation GI50
[18] = Ba/F3 EGFR ASV ins, 72 h proliferation, read-out: EGFR Exon20 ASV insertion GI50

Molecule `C=CC(=O)Nc1cc(Nc2nccc(Nc3cc(Cl)c(F)cc3C(C)(C)O)n2)c(OC)cc1N(C)C[C@H]1C[C@H](C)CN1C` [Compound 90, N-(5-(4-(5-chloro-4-fluoro-2-(2-hydroxypropan-2-yl)phenylamino)pyrimidin-2-ylamino)-2-((((2R,4S)-1,4-dimethylpyrrolidin-2-yl)methyl)(methyl)amino)-4-methoxyphenyl) acrylamide formic acid salt] has a GI50 (TMD-8 cells; [6]) of 45 nM, a GI50 (Ba/F3 EGFR NPH ins cells; [7]) of 76.4 nM and a GI50 [1, 8] of 284 nM. The GI50 (WT EGFR cell line A-431; [9]) was 59.4 nM, the GI50 [2, 10] was 6.1 nM and the GI50 (DB cells; DB cells, CellTiter-Glo) was > 3000 nM. For the same molecule, the GI50 (Ri-1 cells; [11]) was 83.8 nM, the IC50 [3] was 27.6 nM and the IC50 [4] was 57.2 nM. The GI50 (OCI-LY-10 cells; [12]) was 82.7 nM, the GI50 (Ba/F3 EGFR ASV ins cells; [13]) was 83.1 nM and the IC50 [5] was 30.8 nM.

`CCOc1cc2ncc(C#N)c(Nc3ccc(OCc4ccccn4)c(Cl)c3)c2cc1NC(=O)/C=C/CN(C)C` [Neratinib, reference compound] showed a GI50 (Ba/F3 EGFR NPH ins cells; [7]) of 700 nM, a GI50 [1, 14] of 5.2 nM and a GI50 (WT EGFR cell line A-431; [9]) of 15.9 nM. The GI50 [2, 10] was 110 nM and the GI50 (Ba/F3 EGFR ASV ins cells; [13]) was 88 nM.

Molecule `CN(C)C/C=C/C(=O)Nc1cc2c(Nc3ccc(F)c(Cl)c3)ncnc2cc1O[C@H]1CCOC1` [Afatinib, reference compound] has a GI50 (TMD-8 cells) of 1160 nM, a GI50 [1, 14] of 17.8 nM and a GI50 (DB cells) of 657 nM. For the same molecule, the GI50 (Ri-1 cells) was 1030 nM and the GI50 (OCI-LY-10 cells) was 1040 nM.

In the case of `C=CC(=O)Nc1cc(Nc2ncnc(Nc3cc(F)c(F)cc3C(C)(C)O)n2)c(OC)cc1N(C)CCN1CCCCC1` [Compound 24], the GI50 (TMD-8 cells; [6]) is reported as 107 nM, the GI50 (Ba/F3 EGFR NPH ins cells; [15]) is reported as 142 nM and the GI50 [1, 8] is reported as 303 nM. For the same molecule, the GI50 (WT EGFR cell line A-431; [16]) was 55.5 nM, the GI50 [2, 17] was 23 nM and the GI50 (DB cells; DB cells, CellTiter-Glo) was > 3000 nM. The GI50 (Ri-1 cells; [11]) was 415 nM, the IC50 [3] was 49 nM and the IC50 [4] was 30 nM. The GI50 (OCI-LY-10 cells; [12]) was 324 nM, the GI50 (Ba/F3 EGFR ASV ins cells; [18]) was 101 nM and the IC50 [5] was 65 nM.

`C=CC(=O)Nc1cc(Nc2ncc(Cl)c(Nc3cc(Cl)c(F)cc3C(C)(C)O)n2)c(OC)cc1N(C)CCN(C)C` [Compound 78, N-(5-(5-chloro-4-(5-chloro-4-fluoro-2-(2-hydroxypropan-2-yl)phenylamino)pyrimidin-2-ylamino)-2-((2-(dimethylamino)ethyl)(methyl)amino)-4-methoxyphenyl)acrylamide] was tested, and the GI50 (TMD-8 cells; [6]) was 10.3 nM, the GI50 (Ba/F3 EGFR NPH ins cells; [15]) was 60 nM and the GI50 [1, 8] was 49.2 nM. For the same molecule, the GI50 (WT EGFR cell line A-431; [16]) was 21.5 nM, the GI50 [2, 17] was 1.4 nM and the GI50 (DB cells; DB cells, CellTiter-Glo) was > 3000 nM. It also gave a GI50 (Ri-1 cells; [11]) of 77.8 nM, an IC50 [3] of 19.7 nM and a GI50 (OCI-LY-10 cells; [12]) of 6.2 nM. The GI50 (Ba/F3 EGFR ASV ins cells; [18]) was 35.7 nM.

Molecule `C=CC(=O)Nc1cc(Nc2ncnc(Nc3ccc(C(F)(F)F)cc3C(C)(C)O)n2)c(OC)cc1N(C)CCN(C)C` [Compound 13, N-(2-((2-(dimethylamino)ethyl)(methyl)amino)-5-(4-(2-(2-hydroxypropan-2-yl)-4-(trifluoromethyl)phenylamino)-1,3,5-triazin-2-ylamino)-4-methoxyphenyl)acrylamide] has a GI50 (TMD-8 cells; [6]) of 56.3 nM, a GI50 (Ba/F3 EGFR NPH ins cells; [15]) of 76.5 nM and a GI50 [1, 8] of 156 nM. For the same molecule, the GI50 (WT EGFR cell line A-431; [16]) was 22.5 nM, the GI50 [2, 17] was 15.3 nM and the GI50 (DB cells; DB cells, CellTiter-Glo) was > 3000 nM. The GI50 (Ri-1 cells; [11]) was 120 nM, the IC50 [3] was 36.4 nM and the IC50 [4] was 22.9 nM. For the same molecule, the GI50 (OCI-LY-10 cells; [12]) was 54.5 nM, the GI50 (Ba/F3 EGFR ASV ins cells; [18]) was 53.3 nM and the IC50 [5] was 40.1 nM.
